According to PMC5559406, “A human PET study of [^11C]HMS011, a potential radioligand for AMPA receptors” (EJNMMI Research, 2017):

Target: T1, human AMPA receptors
T1 construct: gene GRIA1; assay details only in supplement
Test: radioligand receptor binding assay (details in supplement)
Settings: labelled compound; noncompetitive (perampanel derivative); subunit not told

For `CNc1cccc(-n2cc(-c3ncccn3)cc(-c3ccccc3C#N)c2=O)c1` [[11C]HMS011, 2-(1-(3-([^11C]methylamino)phenyl)-2-oxo-5-(pyrimidin-2-yl)-1,2-dihydropyridin-3-yl) benzonitrile], the Kd was about 15 nM.
